The values below come from ChEMBL document CHEMBL5241111, “Non-steroidal anti-inflammatory drugs: recent advances in the use of synthetic COX-2 inhibitors” (RSC Med Chem, 2022).

The target in experiment [1] is T1, Prostaglandin G/H synthase 2 (Homo sapiens, UniProt P35354).
T1 sequence (P35354 whole entry): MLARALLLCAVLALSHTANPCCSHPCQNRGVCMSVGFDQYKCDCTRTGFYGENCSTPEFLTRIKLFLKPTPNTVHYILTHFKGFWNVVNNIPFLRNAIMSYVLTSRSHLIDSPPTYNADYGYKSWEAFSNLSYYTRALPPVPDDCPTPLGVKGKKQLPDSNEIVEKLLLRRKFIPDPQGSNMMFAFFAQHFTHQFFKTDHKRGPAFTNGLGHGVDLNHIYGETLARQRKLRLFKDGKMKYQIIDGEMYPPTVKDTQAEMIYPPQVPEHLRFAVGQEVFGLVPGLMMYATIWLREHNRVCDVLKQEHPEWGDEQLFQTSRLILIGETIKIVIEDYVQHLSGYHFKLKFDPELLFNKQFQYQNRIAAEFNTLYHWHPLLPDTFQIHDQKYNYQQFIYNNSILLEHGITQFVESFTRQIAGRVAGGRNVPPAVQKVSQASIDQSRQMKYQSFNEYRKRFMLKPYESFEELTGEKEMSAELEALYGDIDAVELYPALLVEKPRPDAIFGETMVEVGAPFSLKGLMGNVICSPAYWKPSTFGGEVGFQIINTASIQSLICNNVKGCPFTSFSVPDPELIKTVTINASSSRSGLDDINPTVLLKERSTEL
As to the kind of experiment: Inhibition of COX-2 (unknown origin) by colorimetric assay.

Experiment [2] deals with T2, Prostaglandin G/H synthase 2 (Homo sapiens) (UniProt P35354).
T2 sequence (whole entry): T1 sequence (P35354 whole entry)
Briefly: Potency index, ratio of celecoxib IC50 to test compound IC50 for inhibition of COX-2 (unknown origin) by colorimetric assay.

The test system of experiment [3] is Rattus norvegicus. Briefly: Antiinflammatory activity against rat model of carrageenan induced paw edema assessed as reduction in PGE2 level in plasma at 50 mg/kg, po pretreated for 1 hr followed by carrageenan addition and measured after 6 hrs by ELISA relative to control. The experiment is classed as functional. The settings on record: time 7 hrs.
In experiment [4] the test system is Rattus norvegicus. Briefly: Antiinflammatory activity against rat model of carrageenan induced paw edema assessed as inhibition of edema at 50 mg/kg, po pretreated for 1 hr followed by carrageenan addition and measured after 1 to 6 hrs relative to control. The format is functional. The conditions noted are these: time 2-7 hrs. For orientation: Carrageenan injected into the paw causes an acute inflammation.

Experiment [5] addresses T1, Prostaglandin G/H synthase 2. Briefly: Inhibition of human COX-2 using arachidonic acid as substrate preincubated for 5 mins followed by substrate addition and measured after 2 mins by colorimetric assay.
The subject of experiment [6] is Rattus norvegicus. Briefly: Antiinflammatory activity against rat model of carrageenan induced paw edema assessed as inhibition of edema measured after 1 to 6 hrs relative to control. The experiment is classed as functional. The settings on record: time 1-6 hrs.
The target of experiment [7] is Albumin (Bos taurus, UniProt P02769). Briefly: Inhibition of bovine serum albumin denaturation incubated for 15 mins.
Albumin, sequence (P02769 whole entry): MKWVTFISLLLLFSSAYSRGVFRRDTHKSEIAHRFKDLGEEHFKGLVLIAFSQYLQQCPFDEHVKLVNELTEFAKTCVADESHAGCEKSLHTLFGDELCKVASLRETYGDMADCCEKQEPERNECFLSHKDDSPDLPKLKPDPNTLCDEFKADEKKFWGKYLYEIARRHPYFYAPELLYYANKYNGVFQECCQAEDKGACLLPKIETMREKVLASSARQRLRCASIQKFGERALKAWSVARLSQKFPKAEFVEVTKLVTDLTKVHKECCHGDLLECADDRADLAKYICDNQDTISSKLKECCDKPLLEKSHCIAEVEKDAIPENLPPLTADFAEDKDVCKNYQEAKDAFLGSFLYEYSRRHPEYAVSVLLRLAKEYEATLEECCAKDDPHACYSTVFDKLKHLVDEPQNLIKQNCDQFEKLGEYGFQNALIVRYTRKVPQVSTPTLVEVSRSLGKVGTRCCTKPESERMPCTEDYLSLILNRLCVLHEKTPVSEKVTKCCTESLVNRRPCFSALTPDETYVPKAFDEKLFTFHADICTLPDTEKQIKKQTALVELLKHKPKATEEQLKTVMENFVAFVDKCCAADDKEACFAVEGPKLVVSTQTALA
The subject of experiment [8] is A549. Briefly: cells. The conditions noted are these: Homo sapiens, A549, 48 h.
The test system of experiment [9] is HCT-116. Briefly: cells. The settings on record: Homo sapiens, HCT-116, 48 h.
The target in experiment [10] is cGMP-specific 3',5'-cyclic phosphodiesterase (Homo sapiens) (UniProt O76074). As to the kind of experiment: Inhibition of human PDE5 using cGMP as substrate at 10 uM preincubated for 5 mins followed by substrate addition and measured after 30 mins by HPLC analysis relative to control. The conditions noted are these: time 35.0 min.
The species named for experiment [11] is Homo sapiens. As to the kind of experiment: Inhibition of ROS production in human blood at 25 ug/ml relative to control. The experiment is classed as functional.
The species entered for experiment [12] is Homo sapiens. As to the kind of experiment: Inhibition of ROS production in human blood. The format is functional.
Experiment [13] is filed under the species Homo sapiens. Briefly: Potency index, ratio of ibuprofen IC50 to test compound IC50 for inhibition of ROS production in human blood. The experiment is classed as functional.
Experiment [14] deals with MCF7. As to the kind of experiment: cells. The settings on record: Homo sapiens, MCF7, 48 h.
The target in experiment [15] is T1, Prostaglandin G/H synthase 2. Briefly: Inhibition of human recombinant COX-2 by enzyme immunoassay.
In experiment [16] the target is T3, Dihydrofolate reductase (Homo sapiens, UniProt P00374).
T3 sequence (P00374 whole entry): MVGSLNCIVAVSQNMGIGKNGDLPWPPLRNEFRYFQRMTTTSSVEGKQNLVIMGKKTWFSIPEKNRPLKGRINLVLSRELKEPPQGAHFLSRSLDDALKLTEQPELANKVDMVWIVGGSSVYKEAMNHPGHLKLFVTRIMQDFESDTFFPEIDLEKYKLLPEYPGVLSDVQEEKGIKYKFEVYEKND
Briefly: Inhibition of DHFR (unknown origin).

The subject of experiment [17] is Rattus norvegicus. As to the kind of experiment: Antiinflammatory activity against rat model of carrageenan induced paw edema assessed as reduction in IL-6 level in plasma at 50 mg/kg, po pretreated for 1 hr followed by carrageenan addition and measured after 6 hrs by ELISA relative to control. The experiment is classed as functional. The settings on record: time 7 hrs.

The test system of experiment [18] is Rattus norvegicus. As to the kind of experiment: Antiinflammatory activity against rat model of carrageenan induced paw edema assessed as reduction in TNFalpha level in plasma at 50 mg/kg, po pretreated for 1 hr followed by carrageenan addition and measured after 6 hrs by ELISA relative to control. The conditions noted are these: time 7 hrs. The experiment is classed as functional.

Values after ≈ are worked out from the molar mass of the structure shown.

For the compound `CCCCNc1cc(-c2n[nH]c(=S)n2-c2ccc(Br)cc2)cc(S(N)(=O)=O)c1Oc1ccccc1`, the IC50 in experiment [1] was determined as 0.17 µM. Also, the Ratio IC50 in experiment [2] was determined as 12.

Take `COc1cc(-c2cc(-c3cccc(-n4cnnn4)c3)no2)cc(OC)c1OC`: the results for the inhibition in vivo at 50 mg/kg in [3] and in [4] were 81% and 29.2%, respectively.

In the case of `CCCCCC1C(C)=c2c(OCc3nnc(SCC(=O)N4CCN(c5ccccc5)CC4)o3)nn(C)c(=O)c2=C1C` (stereo not given), the IC50 in experiment [5] was determined as 6.8 µM.

Take `COc1ccc(-c2cc(-c3ccc(F)cc3)n(-c3ccc(S(N)(=O)=O)cc3)n2)cc1OC`: in experiment [6], the “inhibition (INH)” value is on record as 42.1%.

In experiment [7], `COc1ccc(C2=NN(C(N)=O)C(c3cn(-c4ccccc4)nc3-c3ccccc3)C2)cc1` (stereo not given) returned an IC50 of 43.5 µM.

`CCOc1ccc2nc(NC(=O)CSc3nnc(Cc4c[nH]c5ccccc45)o3)sc2c1`: the IC50 in experiment [8] and in [9] was 6.43 µM each time.

`COc1ccc(N/C(C)=C\C(=O)Nc2nccs2)cc1` displayed an inhibition in experiment [10] of 100%.

`CC1=c2c(OCc3nnc(SCC(=O)N4CCN(c5ccccc5)CC4)o3)nn(C)c(=O)c2=C(C)C1c1ccccc1` (stereo not given) had an IC50 in experiment [5] of 6.8 µM.

Compound `CCCC(=O)Nc1ccc(OC(=O)c2ccncc2)cc1` displayed an inhibition in vivo at 25 µg/mL in experiment [11] of 85.4%. The same compound yielded an IC50 in experiment [12] of 3.7 µg/mL (≈ 13 µM).

On to `Nc1cccc(OC(=O)c2ccncc2)c1`, for which, in [13], the “Ratio IC50” value was 8. Besides, the inhibition in vivo at 25 µg/mL in [11] came out at 95.9%. This compound yielded an IC50 in experiment [12] of 1.42 µg/mL (≈ 6.63 µM).

For the compound `CCOP(=O)(OCC)C(NC(=O)c1cc(-c2cccc3ccccc23)n(-c2ccc(F)cc2)n1)c1ccccc1` (stereo not given), the IC50 in [14] is 4.37 µM.

In turn, `C/C(=C/C(=O)Nc1nccs1)Nc1ccc(Cl)cc1` displayed an inhibition in experiment [10] of 100%.

On to `COc1ccc(-c2cc(-c3ccc(F)cc3)n(-c3ccc(S(N)(=O)=O)cc3)n2)cc1`, for which, in experiment [6], the “inhibition (INH)” value came out at 42.1%.

On to `CCCCNc1cc(C(=O)n2nc(C)cc2-c2ccccc2)cc(S(N)(=O)=O)c1Oc1ccccc1`, for which the IC50 in [1] stood at 0.32 µM. In addition, the Ratio IC50 in experiment [2] worked out at 12.

Consider `COc1cc(/C=c2\sc3nc(C45CC6CC(CC(C6)C4)C5)nn3c2=O)ccc1O`, for which, in experiment [15], the IC50 was 50 µM.

The compound `C/C(=C/C(=O)Nc1nccs1)Nc1ccccc1` gave an inhibition in experiment [10] of 100%.

`CS(=O)(=O)c1ccc(-c2cc(-c3ccc(F)cc3)n(-c3ccc(S(N)(=O)=O)cc3)n2)cc1`: the “inhibition (INH)” value in [6] is recorded as 42.1%.

On to `NS(=O)(=O)c1ccc(N2C(=O)/C(=C/c3ccc(OC(=O)c4ccccc4)cc3)N=C2c2ccccc2)cc1`, for which the IC50 in [16] is 0.28 µM.

As to `O=c1/c(=C/c2cccc(O)c2)sc2nc(C34CC5CC(CC(C5)C3)C4)nn12`, in [15], the IC50 was determined as 50 µM.

Take `COc1cc(C2CC(c3cccc(-n4cnnn4)c3)=NN2C(C)=O)cc(OC)c1OC` (stereo not given): the inhibition in vivo at 50 mg/kg was 81% in [3], 61.6% in [17], 55.4% in experiment [18] and 29.2% in experiment [4].

The compound `COc1cc(/C=C2\N=C(c3ccccc3)N(c3ccc(C(=O)O)cc3)C2=O)ccc1OC(=O)c1ccccc1` displayed an IC50 in experiment [16] of 0.28 µM.

Take `CC(C)Cc1ccc(C(C)C(=O)O)cc1` (stereo not given) [IBUPROFEN]: in [12], half-maximal inhibition (IC50) required 11.2 µg/mL (≈ 54.3 µM).

`CCCCCC1C(C)=c2c(OCc3nnc(SCC(=O)N4CCN(c5ncccn5)CC4)o3)nn(C)c(=O)c2=C1C` (stereo not given): the IC50 in [5] is 6.8 µM.

In the case of `Nc1ccc(S(=O)(=O)Nc2ncccn2)cc1` [SULFADIAZINE], the IC50 in experiment [16] was 0.13 µM.

For the compound `CC1=c2c(OCc3nnc(SCC(=O)N4CCN(c5ncccn5)CC4)o3)nn(C)c(=O)c2=C(C)C1c1ccccc1` (stereo not given), in experiment [5], the IC50 was 6.8 µM.

One may read the IC50 as the midpoint of a concentration-inhibition curve. The term inhibition in vivo denotes the change of the read-out against control, counted positive when it falls. One may read the inhibition as the percentage by which the read-out fell short of the control. Low readings indicate little suppression, high ones strong suppression.
